Experimental data from the supplement of paper PMC10307832.

Key:
Experiment in all cases: relative viability (nuclei count vs DMSO), 5 days (fraction); higher = more cells survive
[1] = system: NCI-H460
Outline: (§1)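 Five library-drug doses in √10 steps were combined with a fixed anchor-drug dose, or a single drug was given alone, by pin tool to lung cancer cell lines in 1536-well plates the day after seeding. Nuclei were stained and counted after 5 days. Relative viability is the nuclei count in treated wells over that in vehicle wells, taken as the median of duplicate plates.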

[2] = system: LXF-289
Outline: as §1

[3] = system: PC-14
Outline: as §1

[4] = system: NCI-H2009
Outline: as §1

[5] = system: NCI-H2023
Outline: as §1

[6] = system: HARA
Outline: as §1

[7] = system: NCI-H1915
Outline: as §1

[8] = system: A-427
Outline: as §1

[9] = system: NCI-H3122
Outline: as §1

[10] = system: UMC-11
Outline: as §1

[11] = system: HCC-366
Outline: as §1

[12] = system: SK-LU-1
Outline: as §1

[13] = system: NCI-H1755
Outline: as §1

[14] = system: H3255
Outline: as §1

[15] = system: PC-3 [JPC-3]
Outline: as §1

[16] = system: NCI-H1975
Outline: as §1

[17] = system: NCI-H1437
Outline: as §1

[18] = system: NCI-H650
Outline: as §1

[19] = system: NCI-H1793
Outline: as §1

[20] = system: HCC-15
Outline: as §1

[21] = system: NCI-H441
Outline: as §1

[22] = system: NCI-H2405
Outline: as §1

[23] = system: NCI-H596
Outline: as §1

CCCCCCCCCCCC1=C(O)C(=O)C=C(O)C1=O [Embelin] + CC(=O)c1c(C)c2cnc(Nc3ccc(N4CCNCC4)cn3)nc2n(C2CCCC2)c1=O [Palbociclib] (partner 0.5 µM)
relative viability ([1]; first compound 0.08 µM): 0.169 | relative viability ([1]; first compound 0.8 µM): 0.227 | relative viability ([1]; first compound 2.53 µM): 0.134 | relative viability ([1]; first compound 8 µM): 0.156 | relative viability ([2]; first compound 0.08 µM): 0.594 | relative viability ([2]; first compound 0.8 µM): 0.59 | relative viability ([2]; first compound 2.53 µM): 0.649 | relative viability ([2]; first compound 8 µM): 0.613 | relative viability ([3]; first compound 0.08 µM): 0.548 | relative viability ([3]; first compound 0.8 µM): 0.597 | relative viability ([3]; first compound 2.53 µM): 0.819 | relative viability ([3]; first compound 8 µM): 0.569 | relative viability ([4]; first compound 0.08 µM): 0.223 | relative viability ([4]; first compound 0.8 µM): 0.277 | relative viability ([4]; first compound 2.53 µM): 0.208 | relative viability ([4]; first compound 8 µM): 0.186 | relative viability ([5]; first compound 0.08 µM): 0.379 | relative viability ([5]; first compound 0.8 µM): 0.345 | relative viability ([5]; first compound 2.53 µM): 0.455 | relative viability ([5]; first compound 8 µM): 0.351 | relative viability ([6]; first compound 0.08 µM): 0.269 | relative viability ([6]; first compound 0.8 µM): 0.324 | relative viability ([6]; first compound 2.53 µM): 0.301 | relative viability ([6]; first compound 8 µM): 0.32 | relative viability ([7]; first compound 0.08 µM): 0.543 | relative viability ([7]; first compound 0.8 µM): 0.56 | relative viability ([7]; first compound 2.53 µM): 0.583 | relative viability ([7]; first compound 8 µM): 0.522 | relative viability ([8]; first compound 0.08 µM): 0.525 | relative viability ([8]; first compound 0.8 µM): 0.563 | relative viability ([8]; first compound 2.53 µM): 0.526 | relative viability ([8]; first compound 8 µM): 0.496 | relative viability ([9]; first compound 0.08 µM): 0.18 | relative viability ([9]; first compound 0.8 µM): 0.236 | relative viability ([9]; first compound 2.53 µM): 0.175 | relative viability ([9]; first compound 8 µM): 0.186 | relative viability ([10]; first compound 0.08 µM): 0.337 | relative viability ([10]; first compound 0.8 µM): 0.36 | relative viability ([10]; first compound 2.53 µM): 0.323 | relative viability ([10]; first compound 8 µM): 0.37 | relative viability ([11]; first compound 0.08 µM): 0.35 | relative viability ([11]; first compound 0.8 µM): 0.391 | relative viability ([11]; first compound 2.53 µM): 0.49 | relative viability ([11]; first compound 8 µM): 0.453 | relative viability ([12]; first compound 0.08 µM): 0.419 | relative viability ([12]; first compound 0.8 µM): 0.41 | relative viability ([12]; first compound 2.53 µM): 0.621 | relative viability ([12]; first compound 8 µM): 0.274 | relative viability ([13]; first compound 0.08 µM): 0.471 | relative viability ([13]; first compound 0.8 µM): 0.483 | relative viability ([13]; first compound 2.53 µM): 0.376 | relative viability ([13]; first compound 8 µM): 0.427 | relative viability ([14]; first compound 0.08 µM): 0.324 | relative viability ([14]; first compound 0.8 µM): 0.347 | relative viability ([14]; first compound 2.53 µM): 0.328 | relative viability ([14]; first compound 8 µM): 0.295 | relative viability ([15]; first compound 0.08 µM): 0.518 | relative viability ([15]; first compound 0.8 µM): 0.543 | relative viability ([15]; first compound 2.53 µM): 0.571 | relative viability ([15]; first compound 8 µM): 0.511 | relative viability ([16]; first compound 0.08 µM): 0.601 | relative viability ([16]; first compound 0.8 µM): 0.605 | relative viability ([16]; first compound 2.53 µM): 0.783 | relative viability ([16]; first compound 8 µM): 0.586 | relative viability ([17]; first compound 0.08 µM): 0.313 | relative viability ([17]; first compound 0.8 µM): 0.3 | relative viability ([17]; first compound 2.53 µM): 0.391 | relative viability ([17]; first compound 8 µM): 0.335 | relative viability ([18]; first compound 0.08 µM): 0.272 | relative viability ([18]; first compound 0.8 µM): 0.407 | relative viability ([18]; first compound 2.53 µM): 0.34 | relative viability ([18]; first compound 8 µM): 0.313 | relative viability ([19]; first compound 0.08 µM): 0.317 | relative viability ([19]; first compound 0.8 µM): 0.363 | relative viability ([19]; first compound 2.53 µM): 0.411 | relative viability ([19]; first compound 8 µM): 0.363 | relative viability ([20]; first compound 0.08 µM): 0.703 | relative viability ([20]; first compound 0.8 µM): 0.757 | relative viability ([20]; first compound 2.53 µM): 0.857 | relative viability ([20]; first compound 8 µM): 0.774 | relative viability ([21]; first compound 0.08 µM): 0.217 | relative viability ([21]; first compound 0.8 µM): 0.221 | relative viability ([21]; first compound 2.53 µM): 0.193 | relative viability ([21]; first compound 8 µM): 0.195 | relative viability ([22]; first compound 0.08 µM): 0.543 | relative viability ([22]; first compound 0.8 µM): 0.575 | relative viability ([22]; first compound 2.53 µM): 0.511 | relative viability ([22]; first compound 8 µM): 0.535

CCCCCCCCCCCC1=C(O)C(=O)C=C(O)C1=O [Embelin] + NC(=O)Nc1cc(-c2cccc(F)c2)sc1C(=O)N[C@H]1CCCNC1 [AZD7762] (partner 0.2 µM)
relative viability ([1]; first compound 0.08 µM): 0.658 | relative viability ([1]; first compound 0.8 µM): 0.717 | relative viability ([1]; first compound 2.53 µM): 0.585 | relative viability ([1]; first compound 8 µM): 0.378 | relative viability ([2]; first compound 0.08 µM): 1.17 | relative viability ([2]; first compound 0.8 µM): 1.16 | relative viability ([2]; first compound 2.53 µM): 1.14 | relative viability ([2]; first compound 8 µM): 1.2 | relative viability ([3]; first compound 0.08 µM): 0.339 | relative viability ([3]; first compound 0.8 µM): 0.419 | relative viability ([3]; first compound 2.53 µM): 0.345 | relative viability ([3]; first compound 8 µM): 0.258 | relative viability ([6]; first compound 0.08 µM): 0.37 | relative viability ([6]; first compound 0.8 µM): 0.455 | relative viability ([6]; first compound 2.53 µM): 0.52 | relative viability ([6]; first compound 8 µM): 0.362 | relative viability ([7]; first compound 0.08 µM): 0.72 | relative viability ([7]; first compound 0.8 µM): 0.764 | relative viability ([7]; first compound 2.53 µM): 0.751 | relative viability ([7]; first compound 8 µM): 0.614 | relative viability ([8]; first compound 0.08 µM): 0.75 | relative viability ([8]; first compound 0.8 µM): 0.877 | relative viability ([8]; first compound 2.53 µM): 0.737 | relative viability ([8]; first compound 8 µM): 0.452 | relative viability ([9]; first compound 0.08 µM): 0.946 | relative viability ([9]; first compound 0.8 µM): 1.06 | relative viability ([9]; first compound 2.53 µM): 1.06 | relative viability ([9]; first compound 8 µM): 1.01 | relative viability ([11]; first compound 0.08 µM): 0.317 | relative viability ([11]; first compound 0.8 µM): 0.314 | relative viability ([11]; first compound 2.53 µM): 0.291 | relative viability ([11]; first compound 8 µM): 0.281 | relative viability ([13]; first compound 0.08 µM): 0.432 | relative viability ([13]; first compound 0.8 µM): 0.477 | relative viability ([13]; first compound 2.53 µM): 0.45 | relative viability ([13]; first compound 8 µM): 0.429 | relative viability ([14]; first compound 0.08 µM): 0.826 | relative viability ([14]; first compound 0.8 µM): 0.975 | relative viability ([14]; first compound 2.53 µM): 0.894 | relative viability ([14]; first compound 8 µM): 0.913 | relative viability ([15]; first compound 0.08 µM): 0.765 | relative viability ([15]; first compound 0.8 µM): 0.888 | relative viability ([15]; first compound 2.53 µM): 0.797 | relative viability ([15]; first compound 8 µM): 0.724 | relative viability ([16]; first compound 0.08 µM): 0.708 | relative viability ([16]; first compound 0.8 µM): 0.753 | relative viability ([16]; first compound 2.53 µM): 0.806 | relative viability ([16]; first compound 8 µM): 0.703 | relative viability ([17]; first compound 0.08 µM): 1.15 | relative viability ([17]; first compound 0.8 µM): 1.16 | relative viability ([17]; first compound 2.53 µM): 1.15 | relative viability ([17]; first compound 8 µM): 1.2 | relative viability ([18]; first compound 0.08 µM): 0.889 | relative viability ([18]; first compound 0.8 µM): 1.03 | relative viability ([18]; first compound 2.53 µM): 1.01 | relative viability ([18]; first compound 8 µM): 1.27 | relative viability ([19]; first compound 0.08 µM): 0.635 | relative viability ([19]; first compound 0.8 µM): 0.927 | relative viability ([19]; first compound 2.53 µM): 0.472 | relative viability ([19]; first compound 8 µM): 0.408 | relative viability ([23]; first compound 0.08 µM): 1.08 | relative viability ([23]; first compound 0.8 µM): 1.27 | relative viability ([23]; first compound 2.53 µM): 1.26 | relative viability ([23]; first compound 8 µM): 1.01 | relative viability ([20]; first compound 0.08 µM): 1.14 | relative viability ([20]; first compound 0.8 µM): 1.15 | relative viability ([20]; first compound 2.53 µM): 1.46 | relative viability ([20]; first compound 8 µM): 1.41 | relative viability ([21]; first compound 0.08 µM): 1.09 | relative viability ([21]; first compound 0.8 µM): 1.24 | relative viability ([21]; first compound 2.53 µM): 1.18 | relative viability ([21]; first compound 8 µM): 1.36 | relative viability ([22]; first compound 0.08 µM): 0.696 | relative viability ([22]; first compound 0.8 µM): 0.838 | relative viability ([22]; first compound 2.53 µM): 0.876 | relative viability ([22]; first compound 8 µM): 0.716
